Results: article PMC11866186, “Novel Benzimidazole–Oxadiazole Derivatives as Anticancer Agents with VEGFR2 Inhibitory Activity: Design, Synthesis, In Vitro Anticancer Evaluation, and In Silico Studies” (ACS Omega, 2025)
Where two headings read alike, the source gives them in different places.

Legend:
A549 cell line = assay: MTT assay, A549 cells; format: cell-based, human; settings: for IC50: Homo sapiens, A549, MTT, 24 h, read-out: IC50 against A549
Experimental: (§1) The synthesized compounds 4a–4s were screened for their in vitro anticancer activity via the standard MTT assay using three human tumor cell lines, namely, the human lung adenocarcinoma cell line (A549), the human breast cancer cell line (MCF-7), and the human pancreas cell line (PANC-1). Cisplatin was used as a reference drug. […] When the structures of the compounds are evaluated, it is seen that the compounds are derived from two different sources. There are hydroxyl and methoxy substituents on the phenyl ring attached to the benzimidazole. It has also been derivatized using different groups on the phenyl ring close to oxadiazole. When the activities in the PANC-1 cell line are evaluated, it is seen that the activity of compounds bearing the 2,4-dichloro substituent is especially high.
(§2) Many analyses are performed to determine cell proliferation. MTT analysis is one of the viability determination tests. According to the working mechanism of the method, the dye containing the tetrazolium ring reacts with the dehydrogenase enzymes in the cells, only to be reduced and broken down by the metabolic cells, turning into water-insoluble formazan crystals. Color changes associated with mitochondrial activity and resulting from the addition of a solvent as a result of the reaction are measured in the microplate reader as optical density data values.[30] Cells were planted in flat-bottomed, 96-well, sterile, lidded, disposable microplates with 1 × 10^4 cells per well in 200 μL of appropriate medium and were allowed to adhere to the plate bottom by incubating for 24 h. At the end of 24 h, 100 μL of medium was withdrawn, and test substances at different concentrations, prepared in 100 μL, were added. Following the substance application, after a 24 h incubation period, 20 μL of stock MTT solution (MTT solution dissolved in 5 mg/mL PBS and filtered before application) was added to each well and protected from light, and the incubation continued for 3 h. Then, the media of the cells were completely withdrawn, and 100 μL of DMSO was added to dissolve the formazan crystals. After shaking in the dark for 15 min, the optical densities (absorbance) of the color changes at 540–570 and 650 nm reference wavelengths were read in the microplate reader. The data were calculated and created in Microsoft Office Excel. For this purpose, first, the blind well value and the control groups of colored substances were removed from the optical readings. The averages of optical densities and % viability values were made from Excel formula calculations, and the results were discussed. The viability of the control group was assumed to be 100%, and all other viability values were calculated based on this (series were run in n = 5 replicates).

MCF-7 cell line = assay: MTT assay, MCF-7 cells; format: cell-based, human; settings: Homo sapiens, MCF7, 24 h, read-out: IC50 against MCF-7
Experimental: as §1, §2

hTERT-HPNE cell line = assay: MTT assay, normal pancreas hTERT-HPNE cells; format: cell-based; settings: normal human pancreas cells, 24 h, read-out: IC50 against hTERT-HPNE
Experimental: (§3) By comparing the compounds’ cytotoxic effects against tumor cell lines and normal cell lines, the drug safety parameter for the anticancer activity of the compounds was evaluated, thereby confirming their cytoprotective qualities. In this study, normal human lung (CCD-19Lu) and normal human pancreas (hTERT-HPNE) cell lines were used as controls. The selectivity index (SI) calculated for the compounds tested scales the IC50 values of the compounds against various tumor cell lines with the IC50 values against normal cell lines (Table 2). […] The differential selectivity indices underscore the importance of targeted therapeutic strategies and the potential for these compounds to provide selective anticancer effects with reduced toxicity to normal cells.
as §2

CCD-19Lu cell line = assay: MTT assay, normal lung CCD-19Lu cells; format: cell-based; settings: CCD 19Lu, normal human lung cells, 24 h, read-out: IC50 against CCD-19Lu
Experimental: as §3, §2

VEGFA = VEGFA immunofluorescent staining in MCF-7 cells; format: cell-based, human; settings: 24 h treatment, anti-VEGFA antibody, semiquantitative scoring
Text: An endogenous angiogenic growth factor called VEGFA primarily promotes the migration and proliferation of vascular endothelial cells.[2] Fluorescent staining degrees of the MCF-7 cancer cell line, marked with an anti-VEGFA antibody and immunofluorescence technique, were compared under light microscopy (Figure 4). […] Five different areas were selected for each group. All cell nuclei seen in the selected areas are compared with those stained VEGFA positive.
For VEGFA immunofluorescent staining, cells were grown on sterile coverslips in 6-well culture dishes. The cells were purified from the medium and washed with phosphate-buffered saline (PBS) (Sigma-Aldrich, Germany). The washed cells were fixed in ph 7.4% paraformaldehyde (Merk, Germany) for 20 min at room temperature. After fixation, the cells were washed two times with PBS for 5 min. For permeability, the cells were incubated in 0.1% Triton X-100 (Sigma-Aldrich, Germany) solution for 10 min. PBS was then washed for 5 min. After washing, Ultra V Block (Thermo Scientific, PBQ180830, USA) was dropped and waited at room temperature for 30 min to prevent nonspecific binding. […] Fluorescent microscopy (Olympus BX51, Japan) was employed by using suitable filters for fluorescence examination and then by making a registration.

PANC-1 cell line = assay: MTT assay, PANC-1 cells; format: cell-based, human; settings: for IC50: MTT, 24 h, read-out: IC50 against PANC-1
Experimental: Cisplatin was used as a reference drug. […] There are hydroxyl and methoxy substituents on the phenyl ring attached to the benzimidazole. It has also been derivatized using different groups on the phenyl ring close to oxadiazole.
as §2

VEGFR2 = target: T1, VEGFR2 (Homo sapiens, UniProt P35968); assay: VEGFR2 Kinase Assay Kit inhibition; format: biochemical; settings: read-out: IC50 against VEGFR2
T1 construct: purchased
T1 sequence (P35968 20-1356): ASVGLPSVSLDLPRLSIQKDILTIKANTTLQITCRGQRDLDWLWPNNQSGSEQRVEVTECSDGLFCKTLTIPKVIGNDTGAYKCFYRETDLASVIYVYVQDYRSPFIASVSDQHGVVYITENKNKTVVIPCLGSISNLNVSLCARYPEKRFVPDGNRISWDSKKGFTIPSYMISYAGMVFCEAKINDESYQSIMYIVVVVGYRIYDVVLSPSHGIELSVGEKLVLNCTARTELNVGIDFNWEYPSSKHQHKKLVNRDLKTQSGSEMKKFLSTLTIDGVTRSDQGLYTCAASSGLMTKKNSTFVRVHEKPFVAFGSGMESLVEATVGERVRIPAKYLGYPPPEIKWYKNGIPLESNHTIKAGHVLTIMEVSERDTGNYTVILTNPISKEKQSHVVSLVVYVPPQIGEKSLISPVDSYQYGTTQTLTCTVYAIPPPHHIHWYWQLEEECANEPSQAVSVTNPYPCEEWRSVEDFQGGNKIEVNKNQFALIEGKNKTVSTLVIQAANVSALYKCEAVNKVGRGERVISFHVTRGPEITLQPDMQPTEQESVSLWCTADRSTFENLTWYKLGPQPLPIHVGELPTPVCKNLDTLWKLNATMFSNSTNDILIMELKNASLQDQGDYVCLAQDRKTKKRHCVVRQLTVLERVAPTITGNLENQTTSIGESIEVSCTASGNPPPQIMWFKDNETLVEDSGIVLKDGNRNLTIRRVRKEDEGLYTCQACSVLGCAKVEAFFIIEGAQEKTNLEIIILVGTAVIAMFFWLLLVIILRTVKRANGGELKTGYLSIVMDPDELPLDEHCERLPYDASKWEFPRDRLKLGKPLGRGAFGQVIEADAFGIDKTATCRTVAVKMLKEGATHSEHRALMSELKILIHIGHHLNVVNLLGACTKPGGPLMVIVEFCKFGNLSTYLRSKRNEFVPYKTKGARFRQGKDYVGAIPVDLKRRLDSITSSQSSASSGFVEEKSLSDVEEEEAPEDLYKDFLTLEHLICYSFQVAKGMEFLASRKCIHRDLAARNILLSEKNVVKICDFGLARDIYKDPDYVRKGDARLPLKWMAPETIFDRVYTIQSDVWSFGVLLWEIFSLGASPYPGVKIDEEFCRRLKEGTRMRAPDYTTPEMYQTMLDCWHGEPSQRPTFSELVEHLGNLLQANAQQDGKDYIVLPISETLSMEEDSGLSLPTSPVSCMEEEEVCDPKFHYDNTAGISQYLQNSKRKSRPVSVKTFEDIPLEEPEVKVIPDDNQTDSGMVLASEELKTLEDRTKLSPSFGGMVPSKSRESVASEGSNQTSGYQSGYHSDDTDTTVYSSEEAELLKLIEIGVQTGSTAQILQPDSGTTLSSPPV
Experimental: The VEGFR2 Kinase Assay Kit was used for VEGFR2 inhibition. The experiment was performed in vitro according to the kit procedure.[31]

| IC50 (A549 cell line) | IC50 (MCF-7 cell line) | IC50 (PANC-1 cell line; Homo sapiens, PANC-1, 24 h) | IC50 (PANC-1 cell line) | IC50 (VEGFR2) | SMILES | IC50 (hTERT-HPNE cell line) | IC50 (CCD-19Lu cell line) | VEGFA immunolocalization compared with control (VEGFA) | Selectivity index (PANC-1) (PANC-1 cell line; SI = cytotoxicity against hTERT-HPNE cells/cytotoxicity against PANC-1 cell line) | Selectivity index (A549) (A549 cell line; SI = cytotoxicity against CCD-19Lu cells/cytotoxicity against A549 cell line) |
| --- | --- | --- | --- | --- | --- | --- | --- | --- | --- | --- |
| 300 nM | 500 nM | – | – | – | COc1ccc(-c2nc3ccc(-c4nnc(SCC(=O)c5ccc(Cl)cc5Cl)o4)cc3[nH]2)cc1 [4r, 2-((5-(2-(4-Methoxyphenyl)-1H-benzimidazol-6-yl)-1,3,4-oxadiazol-2-yl)thio)-1-(2,4-dichlorophenyl)-ethanone] | 10900 nM | 800 nM | less VEGFA immunolocalization | – | – |
| 1600 nM | 1200 nM | 6700 nM | 6600 nM | 502 ± 28 nM | COc1ccc(-c2nc3ccc(-c4nnc(SCC(=O)c5ccc(O)c(O)c5)o4)cc3[nH]2)cc1 [4s, 2-((5-(2-(4-Methoxyphenyl)-1H-benzimidazol-6-yl)-1,3,4-oxadiazol-2-yl)thio)-1-(3,4-dihydroxyphenyl)-ethanone] | 38300 nM | 1300 nM | less VEGFA immunolocalization | 5.80 | 0.81 |
